Test results published in ChEMBL document CHEMBL1149919, “Inhibition of human rhinovirus 3C protease by homophthalimides” (Bioorg Med Chem Lett, 1997).
pIC50: −log10 of the molar value.

Legend:
[1] = target: T1, Human rhinovirus A protease (Human rhinovirus sp.) (UniProt Q4U254); assay: Inhibition of Protease 3C of HRV-14 (human rhinovirus); parameters: concentration or dose not given beside the values; conditions: Rhinovirus B; concentration not given here
T1 sequence (whole entry): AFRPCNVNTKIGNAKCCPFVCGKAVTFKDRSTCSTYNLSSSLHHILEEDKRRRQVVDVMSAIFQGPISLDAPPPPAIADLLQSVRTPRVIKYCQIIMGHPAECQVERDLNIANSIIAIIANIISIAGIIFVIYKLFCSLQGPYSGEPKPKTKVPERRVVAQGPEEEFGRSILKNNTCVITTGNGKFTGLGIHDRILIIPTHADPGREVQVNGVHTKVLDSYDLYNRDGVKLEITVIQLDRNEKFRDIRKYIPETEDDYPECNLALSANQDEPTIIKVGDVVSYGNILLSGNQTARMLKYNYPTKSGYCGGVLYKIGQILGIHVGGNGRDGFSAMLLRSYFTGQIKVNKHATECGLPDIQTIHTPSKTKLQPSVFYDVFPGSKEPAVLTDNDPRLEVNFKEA

[2] = test system: HeLa; assay: Antiviral activity in a one-cycle viral replication assay against HRV-14 (human rhinovirus) infected HeLa cells; format: functional, cell-based
[3] = Cytotoxic effect against HeLa cell line measured by XTT assay; format: cell-based; conditions: human, HeLa cells; read-out: TC50 (the source's name)
[4] = target: T2, Human rhinovirus A protease (Human rhinovirus sp., UniProt Q4U254); assay: The compound was tested for the inhibitory activity against HRV-14 (human rhinovirus) Protease 3C
T2 sequence (Q4U254 whole entry): T1 sequence (whole entry)

[5] = Therapeutic index was determined; conditions: read-out: TI

| Structure (SMILES) | inhibition [1] | pIC50 [2] | CC50 [3] | pIC50 [4] | selectivity ratio [5] |
| --- | --- | --- | --- | --- | --- |
| CN1C(=O)Cc2ccccc2C1=O | 14% |  |  |  |  |
| CN1C(=O)c2ccccc2C(CC(=O)c2ccc(F)cc2)C1=O (stereo unspecified) | 72% | < 5.00 | > 100 µM | 4.39 |  |
| CSCCN1C(=O)Cc2ccccc2C1=O | 13% |  |  |  |  |
| CCOC(=O)CCN1C(=O)c2ccccc2C(CC(=O)c2ccccc2)C1=O (stereo unspecified) | 71% | 5.22 | > 100 µM | 4.26 | 16.7 |
| CS(=O)(=O)CCN1C(=O)Cc2ccccc2C1=O | 6% |  |  |  |  |
| CSCCCN1C(=O)c2ccccc2C(CC(=O)c2ccccc2)C1=O (stereo unspecified) | 35% | < 5.00 | 63 µM | 3.88 |  |
| O=C(O)CCN1C(=O)Cc2ccccc2C1=O | 0% |  |  |  |  |
| C[S+]([O-])CCN1C(=O)Cc2ccccc2C1=O (stereo unspecified) | 19% |  |  |  |  |
| NC(=O)CCN1C(=O)Cc2ccccc2C1=O | 11% |  |  |  |  |
| CS(=O)(=O)CCCN1C(=O)c2ccccc2C(CC(=O)c2ccccc2)C1=O (stereo unspecified) | 70% | < 5.00 | > 100 µM | 4.60 |  |
| CCOC(=O)CCN1C(=O)c2ccccc2C(C(C)=O)C1=O (stereo unspecified) | 8% |  |  |  |  |
| CCOC(=O)CCN1C(=O)Cc2ccccc2C1=O | 13% |  |  |  |  |
| CS(=O)(=O)CCN1C(=O)c2ccccc2C(CC(=O)c2ccccc2)C1=O (stereo unspecified) | 100% | 5.07 | 70.5 µM | 4.66 | 8.3 |
| CSCCCN1C(=O)Cc2ccccc2C1=O | 16% |  |  |  |  |
